Values of other authors as cited in US6969532B2, “Compounds inhibiting COX-2 and iNOS promoter activities” (priority 2000, dated 2005).

Test system: human adenomatous polyposis
Settings: randomized clinical trial

Cc1ccc(-c2cc(C(F)(F)F)nn2-c2ccc(S(N)(=O)=O)cc2)cc1 [Celebrex]
extent of polyp reduction: about 30%
